PubChem BioAssay (NCI)
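Five concentrations, 48 hours, 96-well plates. GI50 marks 50% less growth. The concentration for full growth arrest is given as TGI.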

Legend:
Assay in all cases: NCI-60 cell line screen, 48 h
786-0 renal = tested on: 786-0 renal
HL-60(TB) leukemia = tested on: HL-60(TB) leukemia
M14 melanoma = tested on: M14 melanoma
NCI/ADR-RES ovarian = tested on: NCI/ADR-RES ovarian
OVCAR-8 ovarian = tested on: OVCAR-8 ovarian
PC-3 prostate = tested on: PC-3 prostate
SK-OV-3 ovarian = tested on: SK-OV-3 ovarian
TK-10 renal = tested on: TK-10 renal
U251 CNS = tested on: U251 CNS
UO-31 renal = tested on: UO-31 renal

Compound | GI50 (786-0 renal) [µM] | TGI (786-0 renal) [µM] | GI50 (HL-60(TB) leukemia) [µM] | TGI (HL-60(TB) leukemia) [µM] | GI50 (M14 melanoma) [µM] | TGI (M14 melanoma) [µM] | GI50 (NCI/ADR-RES ovarian) [µM] | TGI (NCI/ADR-RES ovarian) [µM] | GI50 (OVCAR-8 ovarian) [µM] | TGI (OVCAR-8 ovarian) [µM] | GI50 (PC-3 prostate) [µM] | TGI (PC-3 prostate) [µM] | GI50 (SK-OV-3 ovarian) [µM] | TGI (SK-OV-3 ovarian) [µM] | GI50 (TK-10 renal) [µM] | TGI (TK-10 renal) [µM] | GI50 (U251 CNS) [µM] | TGI (U251 CNS) [µM] | GI50 (UO-31 renal) [µM] | TGI (UO-31 renal) [µM]
CCOC(=O)c1cc(C(=O)c2ccc(OC)c(OC)c2)n2c1ccc1ccc3cccnc3c12 | 2.34 | > 100 | 2.78 | > 100 | 0.648 | > 100 | 0.948 | > 100 | 3.73 | > 100 | 0.96 | > 100 | 4.02 | > 100 | 7.2 | > 100 | 3.61 | 26.9 | 0.891 | > 100
CCOC(=O)[C@@H](C)C[C@H](Cc1ccccc1)NC(=O)c1csc([C@@H](C[C@H](C(C)C)N(C)C(=O)CNC(=O)[C@H]2CCCCN2C)OC(C)=O)n1 | 1.37 | > 14.3 | 0.312 | 1.01 | 0.804 | 7.31 | > 14.3 | > 14.3 | 2.84 | > 14.3 | 0.508 | > 14.3 | 0.835 | > 14.3 | > 7.9 | > 14.3 | 1 | > 14.3 | 5.07 | > 14.3
CCCC(O)[C@@]1(CC)CC(C)C(O)(C2(C)C[C@H](C)[C@@H](C(CC)C(=O)C(C)[C@@H](O)[C@H](C)C3OC(O)(C(CC)C(=O)O)[C@@H](C)C(O)C3CC)O2)O1 (stereo not given in full) | – | 5.07 | – | 0.233 | – | 2.15 | – | 1.82 | – | 6.05 | – | 1.76 | – | 6.54 | – | 6.74 | – | 1.82 | – | 3.18
COc1cc([C@@H]2c3cc4c(cc3[C@H](SC(=N)N)[C@H]3COC(=O)[C@H]23)OCO4)cc(OC)c1OC | 0.435 | > 100 | 0.25 | > 100 | 0.288 | > 100 | 0.253 | > 100 | 0.348 | > 100 | 0.381 | > 100 | 0.201 | > 33 | 2.48 | > 78.9 | 0.311 | > 100 | 2.6 | > 71.2
S=C(Sc1ccc(Cl)cc1)Sc1ccc(Cl)cc1 | 1.94 | 3.6 | 1.93 | 8.62 | 2.03 | 3.95 | 2.67 | 6.58 | 3.66 | 12.6 | 1.58 | 3.34 | 6.05 | 31.8 | 2.53 | 5.27 | 2.64 | 8.92 | 1.31 | 2.63
C#COc1cccc(Nc2ncnc3cc(NC(=O)[C@@H](C)Cl)ccc23)c1 | 19.3 | > 62.5 | 2.02 | 8.25 | 3.92 | > 62.5 | 5.21 | 34.6 | 18.1 | > 62.5 | 11.7 | > 62.5 | 19.6 | > 62.5 | 36.5 | > 62.5 | 7.29 | > 62.5 | 17.8 | > 62.5
